Source: patent US10072011B2, “Substituted bridged urea analogs as sirtuin modulators” (GlaxoSmithKline Intellectual Property (No.2) Limited, priority 2014, dated 2018)

Target: T1, SIRT1 (Homo sapiens, UniProt Q96EB6)
T1 sequence (Q96EB6 1-747): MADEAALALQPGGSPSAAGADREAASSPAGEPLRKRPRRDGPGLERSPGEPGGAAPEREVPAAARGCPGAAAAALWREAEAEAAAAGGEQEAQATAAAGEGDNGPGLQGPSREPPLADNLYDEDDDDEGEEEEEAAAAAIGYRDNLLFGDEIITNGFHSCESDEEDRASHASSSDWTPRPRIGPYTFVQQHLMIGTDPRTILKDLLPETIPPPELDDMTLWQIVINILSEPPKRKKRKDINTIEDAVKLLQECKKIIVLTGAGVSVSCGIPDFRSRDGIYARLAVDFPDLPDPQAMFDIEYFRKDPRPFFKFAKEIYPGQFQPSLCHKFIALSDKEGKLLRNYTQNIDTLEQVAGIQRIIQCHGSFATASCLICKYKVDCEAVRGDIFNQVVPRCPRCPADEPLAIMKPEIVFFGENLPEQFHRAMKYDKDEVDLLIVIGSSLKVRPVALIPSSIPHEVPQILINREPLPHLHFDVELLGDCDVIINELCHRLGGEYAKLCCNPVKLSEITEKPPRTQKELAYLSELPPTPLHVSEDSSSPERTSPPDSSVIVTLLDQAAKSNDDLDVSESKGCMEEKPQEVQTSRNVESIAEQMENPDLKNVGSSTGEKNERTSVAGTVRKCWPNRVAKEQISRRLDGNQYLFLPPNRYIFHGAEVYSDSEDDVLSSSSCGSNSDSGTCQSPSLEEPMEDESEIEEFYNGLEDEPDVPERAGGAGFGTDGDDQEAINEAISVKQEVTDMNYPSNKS
Experiment: Trp mass spectrometry assay of SIRT1 activation (Ac-R-H-K-K(Ac)-W-NH2 peptide)
Type: biochemical
Details: Trp peptide 0.5 μM, 120 μM βNAD+, 10 nM SIRT1, 25 min at 25° C.; for Emax: 25 min, relative to control (100%), read-out: TRP MAX RESP (percent maximum fold activation)
How it was run: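 N-terminal His-tagged human SIRT1, expressed in BL21(DE3) and purified, was incubated 25 min with an acetylated Trp peptide and NAD plus test compound at varying concentrations, then quenched with formic acid. OAADPR or deacetylated peptide was quantified by mass spectrometry versus compound-free control; EC1.5 is the concentration giving 50% activity increase, with percent maximum activation.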

| Emax [%] | TRP Activity (EC1.5, concentration of test compound that results in 150% activation of SIRT1) | SMILES |
| --- | --- | --- |
| > 150 | A (EC1.5<1 μM) | O=C(NCc1ccccc1)c1ccc2c(n1)N(C(=O)Nc1cc(OC[C@H](O)CO)ccn1)[C@H]1CCN2C1 [Example 171, (4S)—N7-benzyl-N5-(4-((R)-2,3-dihydroxypropoxy)pyridin-2-yl)-3,4-dihydro-1,4-methanopyrido[2,3-b][1,4]diazepine-5,7(2H)-dicarboxamide] |
| > 150 | A (EC1.5<1 μM) | C[C@@H](NC(=O)c1ccc2c(n1)N(C(=O)Nc1cc(OC[C@H](O)CO)ncn1)[C@H]1CCN2C1)C(F)(F)F [Example 189, (4S)—N5-(6-((R)-2,3-dihydroxypropoxy)pyrimidin-4-yl)-N7-((R)-1,1,1-trifluoropropan-2-yl)-3,4-dihydro-1,4-methanopyrido[2,3-b][1,4]diazepine-5,7(2H)-dicarboxamide] |
| > 150 | A (EC1.5<1 μM) | O=C(NC1CC1(F)F)c1ccc2c(n1)N(C(=O)Nc1cc(OC[C@H](O)CO)ccn1)[C@H]1CCN2C1 (single isomer, unassigned) [Example 245] |
| > 150 | A (EC1.5<1 μM) | C[C@@H](NC(=O)c1ccc2c(n1)N(C(=O)Nc1cc3nc[nH]c3cn1)[C@H]1CCN2C1)C(F)(F)F [Example 192, (4S)—N5-(3H-imidazo[4,5-c]pyridin-6-yl)-N7-((R)-1,1,1-trifluoropropan-2-yl)-3,4-dihydro-1,4-methanopyrido[2,3-b][1,4]diazepine-5,7(2H)-dicarboxamide] |
| > 150 | A (EC1.5<1 μM) | Cc1cc(C(=O)NCC(F)(F)F)nc2c1N1CC[C@@H](C1)N2C(=O)Nc1ccccn1 [Example 287, (4S)-9-methyl-N5-(pyridin-2-yl)-N7-(2,2,2-trifluoroethyl)-3,4-dihydro-1,4-methanopyrido[2,3-b][1,4]diazepine-5,7(2H)-dicarboxamide] |
| > 150 | A (EC1.5<1 μM) | O=C(NC1(C(F)(F)F)CC1)c1ccc2c(n1)N(C(=O)Nc1ccccn1)[C@H]1CCN2C1 [Example 241, (4S)—N5-(pyridin-2-yl)-N7-(1-(trifluoromethyl)cyclopropyl)-3,4-dihydro-1,4-methanopyrido[2,3-b][1,4]diazepine-5,7(2H)-dicarboxamide] |
| > 150 | B (EC1.5 1-25 μM) | NC(=O)c1ccc2c(n1)N(C(=O)Nc1ccccn1)[C@H]1CCN2C1 [Example 257, (4S)—N5-(pyridin-2-yl)-3,4-dihydro-1,4-methanopyrido[2,3-b][1,4]diazepine-5,7(2H)-dicarboxamide] |
| > 150 | B (EC1.5 1-25 μM) | C=CCNC(=O)c1ccc2c(n1)N(C(=O)Nc1cc(OC[C@H](O)CO)ccn1)[C@H]1CCN2C1 [Example 178, (4S)—N7-allyl-N5-(4-((R)-2,3-dihydroxypropoxy)pyridin-2-yl)-3,4-dihydro-1,4-methanopyrido[2,3-b][1,4]diazepine-5,7(2H)-dicarboxamide] |
| > 150 | A (EC1.5<1 μM) | O=C(NC1CC1(F)F)c1ccc2c(n1)N(C(=O)Nc1cc(OCCO)ccn1)[C@H]1CCN2C1 (single isomer, unassigned) [Example 262] |

Further lines, the molecule ahead of its results:

| SMILES | Emax [%] | TRP Activity (EC1.5, concentration of test compound that results in 150% activation of SIRT1) |
| --- | --- | --- |
| O=C(NCC1CC1)c1ccc2c(n1)N(C(=O)Nc1cccnn1)[C@H]1CCN2C1 [Example 96, (4S)—N7-(cyclopropylmethyl)-N5-(pyridazin-3-yl)-3,4-dihydro-1,4-methanopyrido[2,3-b][1,4]diazepine-5,7(2H)-dicarboxamide] | > 150 | A (EC1.5<1 μM) |
| C[C@@H](NC(=O)c1ccc2c(n1)N(C(=O)Nc1cc(OC[C@@H](O)CO)ncn1)[C@H]1CCN2C1)C(F)(F)F [Example 162, (4S)—N5-(6-((S)-2,3-dihydroxypropoxy)pyrimidin-4-yl)-N7-((R)-1,1,1-trifluoropropan-2-yl)-3,4-dihydro-1,4-methanopyrido[2,3-b][1,4]diazepine-5,7(2H)-dicarboxamide] | > 150 | A (EC1.5<1 μM) |
| CC(F)(F)CNC(=O)c1ccc2c(n1)N(C(=O)Nc1ccccn1)[C@H]1CCN2C1 [Example 47, (4S)—N7-(2,2-difluoropropyl)-N5-(pyridin-2-yl)-3,4-dihydro-1,4-methanopyrido[2,3-b][1,4]diazepine-5,7(2H)-dicarboxamide] | > 150 | A (EC1.5<1 μM) |
| Cc1ncc(-c2ccnc(NC(=O)N3c4nc(C(=O)NC5CC5)ccc4N4CC[C@H]3C4)c2)o1 [Example 123, (4S)—N7-cyclopropyl-N5-(4-(2-methyloxazol-5-yl)pyridin-2-yl)-3,4-dihydro-1,4-methanopyrido[2,3-b][1,4]diazepine-5,7(2H)-dicarboxamide] | > 150 | B (EC1.5 1-25 μM) |
| C[C@@H](NC(=O)c1ccc2c(n1)N(C(=O)Nc1cc3c(cn1)OCCC3)[C@H]1CCN2C1)C(F)(F)F [Example 138, (4S)—N5-(3,4-dihydro-2H-pyrano[2,3-c]pyridin-6-yl)-N7-((R)-1,1,1-trifluoropropan-2-yl)-3,4-dihydro-1,4-methanopyrido[2,3-b][1,4]diazepine-5,7(2H)-dicarboxamide] | > 150 | A (EC1.5<1 μM) |
| C[C@@H](NC(=O)c1ccc2c(n1)N(C(=O)Nc1nccc(OC[C@@H](O)CO)n1)[C@H]1CCN2C1)C(F)(F)F [Example 154, (4S)—N5-(4-((S)-2,3-dihydroxypropoxy)pyrimidin-2-yl)-N7-((R)-1,1,1-trifluoropropan-2-yl)-3,4-dihydro-1,4-methanopyrido[2,3-b][1,4]diazepine-5,7(2H)-dicarboxamide] | > 150 | A (EC1.5<1 μM) |
| C[C@@H](NC(=O)c1ccc2c(n1)N(C(=O)Nc1cccc(OC[C@H](O)CO)n1)[C@H]1CCN2C1)C(F)(F)F [Example 141, (4S)—N5-(6-((R)-2,3-dihydroxypropoxy)pyridin-2-yl)-N7-((R)-1,1,1-trifluoropropan-2-yl)-3,4-dihydro-1,4-methanopyrido[2,3-b][1,4]diazepine-5,7(2H)-dicarboxamide] | > 150 | A (EC1.5<1 μM) |
| Cc1ncc(-c2cc(NC(=O)N3c4nc(C(=O)NCC(F)(F)F)ccc4N4CC[C@H]3C4)ncn2)o1 [Example 169, (4S)—N5-(6-(2-methyloxazol-5-yl)pyrimidin-4-yl)-N7-(2,2,2-trifluoroethyl)-3,4-dihydro-1,4-methanopyrido[2,3-b][1,4]diazepine-5,7(2H)-dicarboxamide] | > 150 | A (EC1.5<1 μM) |
| O=C(NCC1(CO)CC1)c1ccc2c(n1)N(C(=O)Nc1ccccn1)[C@H]1CCN2C1 [Example 28, (4S)—N7-((1-(hydroxymethyl)cyclopropyl)methyl)-N5-(pyridin-2-yl)-3,4-dihydro-1,4-methanopyrido[2,3-b][1,4]diazepine-5,7(2H)-dicarboxamide] | > 150 | B (EC1.5 1-25 μM) |
